Results taken from PubChem BioAssay AID1322 (NMMLSC, 2008).
The source made the active and inactive calls. The rule behind the calls is not given here.

Biological target: Bcl-2-like protein 1 (Homo sapiens) (UniProt Q07817)
Experiment: Bcl-XL binding to Bim peptide disruption – biochemical, multiplexed, bead flow cytometry, human Bcl-XL, dose response (AID 1322); for inhibition: test concentration not given here
Details: Bead-based flow cytometry, MCF; for inhibition: hits give high values

Sequence of Bcl-2-like protein 1 (Homo sapiens) (Q07817 whole entry, looked up): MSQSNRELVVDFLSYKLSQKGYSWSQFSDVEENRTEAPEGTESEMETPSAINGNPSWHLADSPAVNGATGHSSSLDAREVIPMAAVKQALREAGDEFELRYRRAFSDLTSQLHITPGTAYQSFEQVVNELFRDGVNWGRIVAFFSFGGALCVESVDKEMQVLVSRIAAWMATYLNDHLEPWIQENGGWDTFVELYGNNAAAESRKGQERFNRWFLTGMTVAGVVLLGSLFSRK

Row | Compound | inhibition | also measured
1 | COc1ccc(C2C(C#N)=C(C)NC3=C2S(=O)(=O)c2ccccc23)cc1 (configuration not stated) | inactive | –
2 | COc1ccc(NC(=O)c2cccs2)cc1 | inactive | –
3 | COC(=O)c1ccc(/C=N/NC(=O)CC(=O)NCc2cccnc2)cc1 | – | outcome: inactive
4 | Cn1c(N)c(C(=O)COC(=O)c2cc(-c3ccco3)nc3ccccc23)c(=O)n(Cc2ccccc2)c1=O | inactive | –
5 | O=C(CSc1nnc(-c2cccs2)n1Cc1ccco1)c1ccc2c(c1)OCO2 | inactive | –
6 | CN=C(NC1CCCCC1)c1ccc(Cl)cc1 | – | outcome: inactive
7 | S=C(NCCc1ccccc1)NCCc1ccccc1 | inactive | –
8 | Cn1c(=O)c2c(nc(NCCO)n2CCc2ccccc2)n(C)c1=O | inactive | –
9 | Cc1ccc(/C=C/C(=O)Nc2ccc([N+](=O)[O-])c(NC(=O)/C=C/c3ccc(C)o3)c2)o1 | inactive | –
10 | COc1cc2c(cc1OC)C(c1ccccc1F)OC(=O)C2 (configuration not stated) | inactive | –
11 | c1ccc(-c2nc(N3CCCCC3)nc3ccccc23)cc1 | inactive | –
12 | CCOC(=O)c1c(NC(=O)c2ccccc2N(C)S(=O)(=O)c2ccccc2)sc2c1CCCC2 | inactive | –
13 | Fc1ccccc1/C=C1\CCCC2=C1NC(=S)NC2c1ccccc1F (configuration not stated) | inactive | –
14 | O=C(Cn1c(-c2ccccc2)noc1=O)N1CCC(Cc2ccccc2)CC1 | – | outcome: inactive
15 | CCCCCCn1nc(C(=O)Nc2nc3c(s2)CCCC3)c2ccccc2c1=O | inactive | –
16 | CCCn1c(C)cc(-c2csc(N)n2)c1C | inactive | –
17 | Cc1ccc(OCC(=O)NCc2ccccn2)c(Br)c1 | inactive | –
18 | Cc1[nH]c2ccccc2c1C(=O)COC(=O)c1c(-c2c(F)cccc2Cl)noc1C | inactive | –
19 | Cc1cc(N2CCN(C)CC2)nc2ccc(NC(=S)N3CCC4(CC3)OCCO4)cc12 | – | outcome: inactive
20 | Cc1cccc(N2C(S)=C(C#N)C(=O)NC2c2cccs2)c1 (configuration not stated) | inactive | –
21 | CN(C)c1ccc(C(=O)/C=C/c2ccc(Br)cc2)cc1 | inactive | –
22 | COC(=O)c1cccc(-n2c(C)cc(C=O)c2C)c1 | – | outcome: inactive

Row | Compound | inhibition | also measured
23 | COc1ccc(CC(=O)Nc2ccc(-c3nc4cc(C)ccc4o3)c(O)c2)cc1OC | inactive | –
24 | CCCCOC(=O)c1nc(Cl)c(Cl)c(N)c1Cl | inactive | –
25 | CC(=O)NC(=O)Nc1sc(=S)n(C)c1C | inactive | –
26 | Nc1c(C(=O)NCc2ccco2)sc2nc3c(cc12)C(=O)CCC3 | inactive | –
27 | CC(C)Cc1cc(-c2ccco2)c(C#N)c(N)n1 | inactive | –
28 | CCc1nnc(NS(=O)(=O)c2ccc(N=CC3=C(O)CC(C)(C)CC3=O)cc2)s1 | inactive | –
29 | Cn1c(CNc2nc(-c3ccccc3)cs2)nnc1SCC(=O)N1CCc2ccccc21 | inactive | –
30 | Cc1sc(NC(=O)Cn2cnnn2)nc1-c1ccc(Cl)cc1 | inactive | –
31 | Cc1ccc(C(NC(=O)C(C)C)c2cc([N+](=O)[O-])c3cccnc3c2O)cc1 (configuration not stated) | – | outcome: inactive
32 | COC(=O)c1ccc(C)c(NC(=O)CCNC(=O)c2ccc([N+](=O)[O-])cc2)c1 | inactive | –
33 | Cc1ccc(-c2cc(-c3ccccc3Cl)c(C#N)c(N)n2)o1 | inactive | –
34 | CC1Cc2ccccc2N1C(=O)c1ccc(N2CCCC2)c([N+](=O)[O-])c1 (configuration not stated) | inactive | –
35 | O=C1C=C(Nc2ccccc2)C(=O)c2ccccc21 | inactive | –
36 | S=C1NC2=C(CCC/C2=C\c2ccccc2)C(c2ccccc2)N1 (configuration not stated) | inactive | –
37 | NC(=O)c1c(NC(=O)C2CCCO2)sc2c1CCCC2 (configuration not stated) | inactive | –
38 | COc1ccccc1-n1c(-c2cc(-c3ccc(F)cc3)n[nH]2)n[nH]c1=S | inactive | –
39 | COc1ccc(N2CCN(C(=O)c3cc(=O)[nH]c4ccccc34)CC2)cc1 | inactive | –
40 | O=C(CNC(=O)c1ccco1)NCC(=O)OCc1ccccc1Br | inactive | –
41 | Cc1cc(C)n(CC(=O)N/N=C/c2cccc([N+](=O)[O-])c2)n1 | – | outcome: inactive
42 | CC(=O)Nc1ccc(-n2cc(-c3ccccc3)[nH]c2=S)cc1 | inactive | –
43 | Cc1cccc(/C=N/N(CCO)C2=NS(=O)(=O)c3ccccc32)c1 | inactive | –
44 | CCN(CC)S(=O)(=O)c1cccc(C(=O)N/N=C/c2ccc(O)c(O)c2O)c1 | inactive | –

Row | Compound | inhibition | also measured
45 | CC(C)(C)C1CCC(=NNC(=O)c2cc3c(s2)CCCC3)CC1 (configuration not stated) | inactive | –
46 | COc1ccc(/C=C2\SC(=O)NC2=S)cc1OC | inactive | –
47 | Cc1cccc(N2CCN(C(=S)Nc3ccc4nc(N5CCN(C)CC5)cc(C)c4c3)CC2)c1C | inactive | –
48 | O=C(Nc1cccc(C(F)(F)F)c1)c1ccc2nc(-c3ccco3)c(-c3ccco3)nc2c1 | inactive | –
49 | CCOC(=O)/C(=C\c1cccc(O)c1)c1nc2sc(C)c(C)c2c(=O)[nH]1 | inactive | –
50 | CCCCOc1ccc(Cc2c(Cl)nc(SC)nc2N2CCOCC2)cc1 | inactive | –
51 | CCSc1ncnc2sc(C)c(C)c12 | – | outcome: inactive
52 | O=C1CCc2cc(S(=O)(=O)NCCCC(=O)N3CCN(Cc4ccc5c(c4)OCO5)CC3)ccc2N1 | – | outcome: inactive
53 | CCC(=O)OCCNc1cc(Sc2nccn2C)c2nonc2c1[N+](=O)[O-] | – | outcome: inactive
54 | COC(=O)Cc1cc(=O)[nH]c(Nc2nc3ccccc3o2)n1 | inactive | –
55 | COc1ccccc1Nc1nc(-c2c(C)nc3ncccn23)cs1 | inactive | –
56 | Nc1ccc(N2CCCCCC2)cc1 | inactive | –
57 | O=C(COC(=O)c1ccccn1)NC1CCCCC1 | inactive | –
58 | CN(C(=O)NC1CCCCC1)c1ccccc1 | inactive | –
59 | Cc1nc(NC(=O)CC(C)C)sc1-c1csc(Nc2ccc(Cl)cc2)n1 | inactive | –
60 | Fc1ccc(C2=Nn3c(Cc4ccccc4F)nnc3SC2)cc1 | inactive | –
61 | O=C(COc1ccccc1)N1CCN(c2ncnc3c2cnn3-c2ccccc2)CC1 | inactive | –
62 | COc1cc(/C=C2\S/C(=N/S(=O)(=O)c3ccccc3)NC2=O)c([N+](=O)[O-])cc1OC | inactive | –
63 | CCOC(=O)c1sc(NC(=O)c2ccncc2)c(C#N)c1C | inactive | –
64 | Cc1ccc(C(=O)C(C(=O)/C=C/c2ccccc2)=C2SCCCS2)cc1 | inactive | –
65 | Cc1ccc2c(C)c(C(=O)Nc3nnc(C)s3)oc2c1 | inactive | –
66 | Cc1ccc(-c2nnc(Cc3ccc(Cl)cc3)o2)cc1 | inactive | –

Row | Compound | inhibition | also measured
67 | COCc1cc(CN2CCCC(CNC(=O)c3ccc(F)cc3)C2)ccc1OC (configuration not stated) | inactive | –
68 | COc1ccc(NC(=O)COc2ncnc3ccccc23)cc1S(=O)(=O)N1CCOCC1 | inactive | –
69 | CC(C)NS(=O)(=O)c1ccc(OCC(=O)Nc2ccc(F)cc2)cc1 | inactive | –
70 | Cc1ccc(/C=C2/NC(=O)N(Cc3ccccc3)C2=O)o1 | – | outcome: inactive
71 | O=C(COc1ccc(Br)cc1CNC1CCCCC1)NCCc1ccccc1 | inactive | –
72 | Cc1ccc(/C=N/N(C)C2=NS(=O)(=O)c3ccccc32)o1 | inactive | –
73 | COc1ccc(N2C(=O)C(Cl)=C(Nc3ccccc3O)C2=O)cc1 | inactive | –
74 | O=C(O)/C=C/C(=O)NNC(=O)c1ccc(Br)cc1 | – | outcome: inactive
75 | CCN=c1scc(C)n1/N=C/c1ccc(O)c(O)c1O | inactive | –
76 | CC1CCN(C2(O)C(=O)Nc3ccc(Br)cc32)CC1 (configuration not stated) | – | outcome: inactive
77 | Cc1ccc(-n2c(CSc3nc(C)cc(C)n3)nnc2SCC(=O)NCc2ccco2)cc1 | inactive | –
78 | Cc1ccc(-c2cc(C(=O)Nc3ccccn3)c3ccccc3n2)o1 | inactive | –
79 | COc1ccccc1-n1c(-c2ccccc2)c[nH]c1=S | inactive | –
80 | COc1cccc(/C=N/Nc2nn3cnnc3c3ccccc23)c1O | – | EC50: inactive
81 | c1ccc(Nc2nc(-c3ccncc3)cs2)cc1 | inactive | –
82 | Cc1ccc(C)c(N2CCN(C(=S)Nc3ccc4nc(N5CCN(C)CC5)cc(C)c4c3)CC2)c1 | inactive | –
83 | CC(C)C(=O)N1CCN(c2ccc([N+](=O)[O-])cc2Cl)CC1 | inactive | –
84 | Cc1cccc(-n2c(-c3ccncc3)n[nH]c2=S)c1 | inactive | –
85 | Cc1ccc(CNc2ccc3c(c2)OCO3)c(C)c1 | inactive | –
86 | CCOC(=O)C1CCCN(c2ncnc3c2cnn3-c2cccc(C)c2)C1 (configuration not stated) | inactive | –
87 | O=C(CSc1nnc(-c2ccco2)n1Cc1ccccc1)c1ccccc1 | inactive | –
88 | COc1ccc2oc(-c3ccccc3)c(C(=O)N3CCOCC3)c2c1 | inactive | –

Row | Compound | inhibition | also measured
89 | CCc1ccc(/C=C/C(=O)c2cc(Br)ccc(=O)c2O)cc1 | inactive | –
90 | O=C(CSc1ccc(-c2ccccc2)nn1)NCc1ccco1 | inactive | –
91 | Cc1ccc(-c2nc3c(c(=O)[nH]c(=O)n3Cc3ccccc3)n2C)o1 | inactive | –
92 | COc1ccc(C2CN(C)CC2C(=O)c2ccc(F)cc2)cc1Cl (configuration not stated) | – | outcome: inactive
93 | O=C(OCc1nc2ccccc2[nH]1)C12CC3CC(CC(C3)C1)C2 | inactive | –
94 | CCOc1ccc(-n2cc(-c3ccc(OC)c(OC)c3)[nH]c2=S)cc1 | – | outcome: inactive
95 | CCc1cccc(CC)c1-n1c(-c2cccnc2)n[nH]c1=S | inactive | –
96 | CCNCc1cc(Br)c(OCC(=O)Nc2ccccc2)c(OC)c1 | inactive | –
97 | COc1cccc(-n2nnnc2SCC(=O)Nc2cccc(NC(C)=O)c2)c1 | inactive | –
98 | CN(C)c1ccc(Nc2nc(-c3cccnc3)cs2)cc1 | inactive | –
99 | NCC(c1ccccc1)c1c[nH]c2ccccc12 (configuration not stated) | inactive | –
100 | O=C(O)CC/C(=C\c1cc([N+](=O)[O-])ccc1Cl)c1nc2ccccc2s1 | inactive | –
101 | CC1Cc2ccccc2N1C(=O)CSc1nnnn1-c1ccc2c(c1)OCCO2 (configuration not stated) | inactive | –
102 | CC(C)c1ccc(/C=N/NC(=O)c2ccccc2Cl)cc1 | inactive | –
103 | Cc1ccc(NC2=C(Cl)C(=O)c3ccccc3C2=O)cc1 | inactive | –
104 | Cc1ccc(NC(=O)C/C(N)=N/OC(=O)c2ccccc2)cc1 | inactive | –
105 | O=C(O)CCN1C(=O)/C(=C\c2ccc(-c3nc4ccccc4s3)o2)SC1=S | inactive | –
106 | Cc1ccc(S(=O)(=O)N2CCCCC2)cc1NC(=O)COC(=O)c1ccccc1F | inactive | –
107 | CNC(=O)c1c(N)sc2c1CCCCC2 | inactive | –
